Where two headings read alike, the source gives them in different places.
Biological target: T1, human LPA1 (Homo sapiens, UniProt Q92633)
T1 construct: expressed in transfected cells; host or cells: CHO-K1
Test: In vitro LPA1 calcium flux antagonist assay - Bioduro protocol
Type: cell-based
Conditions: CHO-K1 cells overexpressing human LPA1 and G15a, LPA challenge at EC80
In short: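 Calcium mobilization read on FLIPR after EC80 LPA was added to compound-pretreated (30 min) CHO-K1 cells co-expressing human LPA1 and G15a. Cells were starved 4 h and dye-loaded with Fluo-8 AM/2.5 mM probenecid in HBSS-Hepes; inhibition normalized between DMSO and LPA-control RFU.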

[1] = calcium mobilization on FLIPR Tetra, read-out: IC50
[2] = Table B3, read-out: Activity (IC50 class)

T1 sequence (Q92633 whole entry): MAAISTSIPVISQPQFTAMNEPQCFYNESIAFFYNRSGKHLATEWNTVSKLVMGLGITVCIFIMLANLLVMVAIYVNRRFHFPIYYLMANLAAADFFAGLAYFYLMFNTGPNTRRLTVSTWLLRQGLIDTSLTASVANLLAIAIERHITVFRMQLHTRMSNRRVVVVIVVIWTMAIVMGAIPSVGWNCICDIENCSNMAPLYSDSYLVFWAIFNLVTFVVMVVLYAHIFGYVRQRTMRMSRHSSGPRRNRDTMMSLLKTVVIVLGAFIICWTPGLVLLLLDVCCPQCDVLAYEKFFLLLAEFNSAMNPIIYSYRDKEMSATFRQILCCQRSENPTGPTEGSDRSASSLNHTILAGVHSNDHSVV

Structure (SMILES)	IC50 [1] [nM]	IC50 [2] [nM]
COc1cc(-c2ccc(NCC(C)C(=O)O)cc2COC2Cc3ccccc3C2)cc(OC)c1C (stereo not drawn) [Compound 116]	2160	> 1000
CCCCOCc1cc(NC2(C(=O)O)CCOCC2)ccc1-c1cc(OC)cc(OCC)c1F [Compound 390]	0.658	< 100
CCOc1cccc(-c2ccc(NC3(C(=O)O)CCOCC3)cc2COC2CCCC2)c1Cl [Compound 264]	5.42	< 100
COC(=O)N1CCC(Nc2ccc(-c3cc(OC)cc(OC)c3)c(COC3CCCC3)c2)(C(=O)O)CC1 [Compound 157]	112	100 to 1000
COC(=O)NC1CCC(Nc2ccc(-c3cc(OC)c(C)c(OC)c3)c(COC3CCCC3)c2)(C(=O)O)CC1 (stereo not drawn) [Compound 208]	56.4	< 100
COc1cc(OC2CC2)c(F)c(-c2ccc(NC3(C(=O)O)CCOCC3)cc2COC2CCCC2)c1 [Compound 249, 4-((2-((cyclopentyloxy)methyl)-3′-cyclopropoxy-2′-fluoro-5′-methoxy-[1,1′-biphenyl]-4-yl)amino)tetrahydro-2H-pyran-4-carboxylic acid]	1.13	< 100
COc1cc(-c2ccc(NC3(C(=O)O)CCNCC3)cc2COC2Cc3ccccc3C2)cc(OC)c1C [Compound 136]	885	> 1000
COc1cc(-c2ccc(NC3(C(=O)O)CCOCC3)cc2COC2CCC3(CC3)C2)cc(OC)c1C (stereo not drawn) [Compound 219]	58	< 100
COc1cc(-c2ccc(NC3(C(=O)O)CCOCC3)cc2COC2Cc3ccccc3C2)cc(OC)c1C#N [Compound 127]	16.3	< 100
CCOc1c(C)ccc(-c2ccc(OC3(C(=O)O)CCOCC3)cc2COC2CC2)c1C [Compound 369]	44.8	< 100
COc1cc(OC)cc(-c2ccc(NC3(C(=O)O)CCOCC3)cc2CO[C@H]2CCC[C@H]2NC(C)=O)c1 [Compound 169]	> 10000	> 1000
COc1cc(OC)cc(-c2ccc(NC3(C(=O)O)CCOCC3)cc2COC2COc3ccccc32)c1 (single isomer, unassigned) [Compound 158]	46.3	< 100
COc1cc(OC2CC2)c(F)c(-c2ccc(OC3(C(=O)O)CCOCC3)cc2COC2CC2)c1 [Compound 344]	106	100 to 1000
CCOc1ccnc(-c2ccc(NC3(C(=O)O)CCOCC3)cc2COC2CC2)c1C(F)F [Compound 323]	833	100 to 1000
CCNc1cccc(-c2ccc(NC3(C(=O)O)CCOCC3)cc2COC2CCCC2)c1F [Compound 278, 4-((2-((cyclopentyloxy)methyl)-3′-(ethylamino)-2′-fluoro-[1,1′-biphenyl]-4-yl)amino)tetrahydro-2H-pyran-4-carboxylic acid]	36.6	< 100
CCOc1cccc(-c2ccc(NC3(C(=O)O)CCOCC3)cc2COC2CC2)c1C(F)F [Compound 279, 4-((2-(cyclopropoxymethyl)-2′-(difluoromethyl)-3′-ethoxy-[1,1′-biphenyl]-4-yl)amino)tetrahydro-2H-pyran-4-carboxylic acid]	4.19	< 100
COc1cc(-c2ccc(NC3(C(=O)O)CC(F)(F)C3)cc2COC2CC2)c(F)c(OC)c1C [Compound 366]	55	< 100
COC(=O)N1CCC(Nc2ccc(-c3cc(OC)c(C)c(OC)c3)c(COC3CCCC3)c2)(C(=O)O)CC1 [Compound 140, 4-((2-((cyclopentyloxy)methyl)-3′,5′-dimethoxy-4′-methyl-[1,1′-biphenyl]-4-yl)amino)-1-(methoxycarbonyl)piperidine-4-carboxylic acid]	28.8	< 100
CCOc1cc(-c2ccc(NCCC(=O)O)cc2COC2Cc3ccccc3C2)cc(OCC)c1C [Compound 113]	7130	> 1000
COc1cc(-c2ccc(NC3(C(=O)O)CCOCC3)cc2COC(C)C)c(F)c(OC)c1C [Compound 352]	75	< 100
COc1cc(OC2CC2)cc(-c2ccc(NC3(C(=O)O)CCOCC3)cc2COC2CCCC2)c1F [Compound 250]	31.7	< 100
CCCCOCc1cc(NC2(C(=O)O)CCOCC2)ccc1-c1cc(OC)c(C)c(OC)c1F [Compound 335]	5.56	< 100
CCOc1cc(OC)cc(-c2ccc(NC3(C(=O)O)CC3)cc2COC2CC2)c1F [Compound 337]	315	100 to 1000
CCOc1cccc(-c2ccc(NC3(C(=O)O)CCC3)cc2COC2CC2)c1C(F)F [Compound 333]	10.3	< 100
COc1cc(-c2ccc(N(C)C3(C(=O)O)CCOCC3)cc2COC2CCCC2)c(F)c(OC)c1C [Compound 239]	970	100 to 1000
Cc1c(OC2CC2)cccc1-c1ccc(NC2(C(=O)O)CCC(F)(F)CC2)cc1COC1CC1 [Compound 387]	4.39	< 100
COc1cc(-c2ccc(N(C)CCC(=O)O)cc2COC2Cc3ccccc3C2)cc(OC)c1C [Compound 107]	2580	> 1000

Structure (SMILES)	IC50 [1] [nM]	IC50 [2] [nM]
COc1cc(-c2ccc(NC3(C(=O)O)CCOCC3)cc2COC2CCCC2)cc(OC)c1C [Compound 134, 4-({2-[(cyclopentyloxy)methyl]-3′,5′-dimethoxy-4′-methyl-[1,1′-biphenyl]-4-yl}amino)-oxane-4-carboxylic acid]	90.6	< 100
COc1cc(-c2ccc(NC3(C(=O)O)CCOCC3)cc2CO[C@@H]2CCC[C@H]2OC)c(C)c(OC)c1C (racemic) [Compound 204]	163	100 to 1000
COC(=O)N1CCC(Nc2cc(C)c(-c3cc(C#N)cc(OC)c3)c(COC3CCCC3)c2)(C(=O)O)CC1 [Compound 161]	976	100 to 1000
COc1cc(-c2ccc(NC3(C(=O)O)CCOCC3)cc2COC2CCCC2)c(F)c(C2CC2)c1 [Compound 240]	23.4	< 100
COC(=O)N1CC(Nc2ccc(-c3cc(OC)c(C)c(OC)c3)c(COC3Cc4ccccc4C3)c2)(C(=O)O)C1 [Compound 129]	17.2	< 100
COc1c(C)c(OC)c(F)c(-c2ccc(NC3(C(=O)O)CCOCC3)cc2COC2CCCC2)c1F [Compound 270]	79.8	< 100
COc1cc(-c2ccc(NC3(C(=O)O)CCOCC3)cc2COC2Cc3ccccc3C2)cc(OC)c1C(C)=O [Compound 123]	14.8	< 100
COc1cc(-c2ccc(OC3(C(=O)O)CC3)cc2COC2Cc3ccccc3C2)cc(OC)c1C [Compound 117, 1-({2-[(2,3-dihydro-1H-inden-2-yloxy)methyl]-3′,5′-dimethoxy-4′-methyl-[1,1′-biphenyl]-4-yl}oxy)cyclopropane-1-carboxylic acid]	60.5	< 100
COc1cc(OC)cc(-c2ccc(NC3(C(=O)O)CCOCC3)cc2CCN2CCCC2=O)c1 [Compound 202]	> 10000	> 1000
CCOc1cc(OC)cc(-c2ccc(NC3(C(=O)O)CCCCC3)cc2COC2CC2)c1F [Compound 357]	30.3	< 100
COc1cc(-c2ccc(NC3(C(=O)O)CCOCC3)cc2COC2COc3ccccc32)c(F)c(OC)c1C (single isomer, unassigned) [Compound 224]	158	100 to 1000
COc1cc(-c2ccc(NC3(C(=O)O)CCOCC3)cc2COC2CCCC2)c(F)c(OC)c1C(C)O (stereo not drawn) [Compound 300]	35.3	< 100
COc1cc(-c2ccc(C3(C(=O)O)CCOCC3)cc2COC2CCCC2)cc(OC)c1C [Compound 234]	5190	> 1000
COc1cc(-c2ccc(NC3(C(=O)O)CCC(C)(OC)CC3)cc2COC2CCCC2)c(F)c(OC)c1C (single isomer, unassigned) [Compound 237]	63.6	< 100
CCOC1CC(Nc2ccc(-c3cc(OC)c(C)c(OC)c3C)c(COC3CCCC3)c2)(C(=O)O)C1 (stereo not drawn) [Compound 213]	58.7	< 100
CCOc1cncc(-c2c(C)cc(NC3(C(=O)O)CCOCC3)cc2COC2CC2)c1C(F)F [Compound 410]	179	100 to 1000
CCOc1cccc(-c2ccc(OC3(C(=O)O)CCOCC3)cc2COC2CC2)c1C(F)F [Compound 371]	22.3	< 100
COc1cc(OC2CC2)c(F)c(-c2ccc(NC3(C(=O)O)CCOCC3)cc2COC2CC2)c1 [Compound 290]	15.8	< 100
CCOc1cc(OC)c(F)c(-c2ccc(NC3(C(=O)O)CCOCC3)cc2COC2CCCC2)c1 [Compound 297]	137	100 to 1000
O=C(O)C1(Nc2ccc(-c3cccc(OC4CC4)c3F)c(COC3CC3)c2)CCOCC1 [Compound 289]	51	< 100
COc1cc(OC2CC2)cc(-c2ccc(OC3(C(=O)O)CCOCC3)cc2COC2CCCC2)c1 [Compound 378]	834	100 to 1000
CCOc1cccc(-c2ccc(OC3(C(=O)O)CCC3)cc2COC2CC2)c1 [Compound 377]	> 10000	> 1000
COc1cc(-c2c(C)cc(NC3(C(=O)O)CCOCC3)cc2CCC2CCOC2)cc(OC)c1C (stereo not drawn) [Compound 309]	37.7	< 100
CCc1nccc(-c2ccc(NC3(C(=O)O)CCOCC3)cc2COC2CC2)c1F [Compound 339]	85.3	< 100
COc1cc(-c2c(C)cc(NC3(C(=O)O)CCOCC3)cc2COC2CCCC2)c(C)c(OC)c1C [Compound 149]	88	< 100
COc1cc(-c2cc(F)c(NC3(C(=O)O)CCOCC3)cc2COC2CCCC2)c(F)c(OC)c1C [Compound 243]	82.9	100 to 1000
O=C(O)C1(Nc2ccc(-c3cccc(OC4CCC4)c3F)c(COC3CC3)c2)CCOCC1 [Compound 291]	173	< 100

Reference: US11884627B2, “Compounds and compositions for treating conditions associated with LPA receptor activity” (Lhotse Bio, Inc., priority 2022, dated 2024)
